Here are results for five compounds from ChEMBL document CHEMBL5724914, “Linking interpersonal differences in gut microbiota composition and drug biotransformation activity” (2024).

Data set [1] is described as follows: The drug is tested on WLS-027 corresponding to human gut metagenome with ENA study accession number: PRJEB37062 and ENA sample accession number: ERS12561744 for biotransformation under anaerobic condition. The drug concentrations were measured over 9 timepoints collected between 0 and 24 hours of incubation by liquid-chromatography-coupled mass spectrometry (LC–MS). The note with it: 2 µM.

Data set [2] can be described thus: The drug is tested on WLS-098 corresponding to human gut metagenome with ENA study accession number: PRJEB37062 and ENA sample accession number: ERS12561754 for biotransformation under anaerobic condition. The drug concentrations were measured over 9 timepoints collected between 0 and 24 hours of incubation by liquid-chromatography-coupled mass spectrometry (LC–MS). The note with it: 2 µM.

Data set [3] can be described thus: The drug is tested on Z-012 corresponding to metagenome with ENA study accession number: PRJEB37062 and ENA sample accession number: ERS12561812 for biotransformation under anaerobic condition. The drug concentrations were measured over 9 timepoints collected between 0 and 24 hours of incubation by liquid-chromatography-coupled mass spectrometry (LC–MS). The note with it: 2 µM.

For data set [4] the following is noted: human gut metagenome, 24 h, 2 µM.
For data set [5] the following is noted: human gut metagenome, 24 h, 2 µM. This is another data set of the same source.
The nature of data set [6]: The drug is tested on WLS-007 corresponding to human gut metagenome with ENA study accession number: PRJEB37062 and ENA sample accession number: ERS12561742 for biotransformation under anaerobic condition. The drug concentrations were measured over 9 timepoints collected between 0 and 24 hours of incubation by liquid-chromatography-coupled mass spectrometry (LC–MS). As to conditions: 2 µM.

For data set [7] the following is noted: human gut metagenome, 24 h, 2 µM. The source holds these as a separate data set.
The nature of data set [8]: The drug is tested on WLS-073 corresponding to human gut metagenome with ENA study accession number: PRJEB37062 and ENA sample accession number: ERS12561749 for biotransformation under anaerobic condition. The drug concentrations were measured over 9 timepoints collected between 0 and 24 hours of incubation by liquid-chromatography-coupled mass spectrometry (LC–MS). The note with it: 2 µM.

For data set [9] the following is noted: human gut metagenome, 24 h, 2 µM. This is another data set of the same source.
The nature of data set [10]: The drug is tested on WLS-090 corresponding to human gut metagenome with ENA study accession number: PRJEB37062 and ENA sample accession number: ERS12561753 for biotransformation under anaerobic condition. The drug concentrations were measured over 9 timepoints collected between 0 and 24 hours of incubation by liquid-chromatography-coupled mass spectrometry (LC–MS). As to conditions: 2 µM.

For data set [11] the following is noted: human gut metagenome, 24 h, 2 µM. The source holds these as a separate data set.
Data set [12] can be described thus: The drug is tested on WLS-052 corresponding to human gut metagenome with ENA study accession number: PRJEB37062 and ENA sample accession number: ERS12561747 for biotransformation under anaerobic condition. The drug concentrations were measured over 9 timepoints collected between 0 and 24 hours of incubation by liquid-chromatography-coupled mass spectrometry (LC–MS). The note with it: 2 µM.

A short description of data set [13]: The drug is tested on Z-011 corresponding to mouse gut metagenome with ENA study accession number: PRJEB37062 and ENA sample accession number: ERS12561811 for biotransformation under anaerobic condition. The drug concentrations were measured over 9 timepoints collected between 0 and 24 hours of incubation by liquid-chromatography-coupled mass spectrometry (LC–MS). The note with it: 2 µM.

The conditions of data set [14]: human gut metagenome, 24 h, 2 µM. This is another data set of the same source.
The conditions of data set [15]: human gut metagenome, 24 h, 2 µM. This is another data set of the same source.
Data set [16] is described as follows: The drug is tested on Z-027 corresponding to metagenome with ENA study accession number: PRJEB37062 and ENA sample accession number: ERS12561826 for biotransformation under anaerobic condition. The drug concentrations were measured over 9 timepoints collected between 0 and 24 hours of incubation by liquid-chromatography-coupled mass spectrometry (LC–MS). As to conditions: 2 µM.

A short description of data set [17]: The drug is tested on Z-001 corresponding to mouse gut metagenome with ENA study accession number: PRJEB37062 and ENA sample accession number: ERS12561801 for biotransformation under anaerobic condition. The drug concentrations were measured over 9 timepoints collected between 0 and 24 hours of incubation by liquid-chromatography-coupled mass spectrometry (LC–MS). The note with it: 2 µM.

The nature of data set [18]: The drug is tested on Z-020 corresponding to rabbit gut metagenome with ENA study accession number: PRJEB37062 and ENA sample accession number: ERS12561819 for biotransformation under anaerobic condition. The drug concentrations were measured over 9 timepoints collected between 0 and 24 hours of incubation by liquid-chromatography-coupled mass spectrometry (LC–MS). As to conditions: 2 µM.

The conditions of data set [19]: human gut metagenome, 24 h, 2 µM. This is another data set of the same source.
Data set [20] can be described thus: The drug is tested on Z-023 corresponding to metagenome with ENA study accession number: PRJEB37062 and ENA sample accession number: ERS12561822 for biotransformation under anaerobic condition. The drug concentrations were measured over 9 timepoints collected between 0 and 24 hours of incubation by liquid-chromatography-coupled mass spectrometry (LC–MS). The note with it: 2 µM.
Further: call rule not given here.

On to `CCOC(=O)[C@H](CCc1ccccc1)N[C@H]1CCc2ccccc2N(CC(=O)O)C1=O` [BENAZEPRIL], for which the “Bacterial Biotransformation” value in data set [1], in data set [2], in [3], in [4], in [5] and in data set [6] was “Compound metabolized” throughout. The “Bacterial Biotransformation” value in data set [7], in data set [8], in data set [9], in data set [10], in data set [11] and in data set [12] was “Compound metabolized” throughout. The “Bacterial Biotransformation” value in data set [13] is given as “Compound metabolized”; in data set [14] it was “Compound metabolized”; in [15] it was “Compound NOT metabolized”; in data set [16] it was “Compound NOT metabolized”; in [17] it was “Compound metabolized”; in data set [18], “Compound metabolized”. Moreover, the “Bacterial Biotransformation” value in data set [19] and in data set [20] was “Compound metabolized” each time.

Take `NS(=O)(=O)c1cc2c(cc1Cl)N=C(CSCc1ccccc1)NS2(=O)=O` [BENZTHIAZIDE]: the “Bacterial Biotransformation” value in [1], in [2], in [3], in data set [4], in data set [5] and in data set [6] was “Compound NOT metabolized” throughout. Besides, the “Bacterial Biotransformation” value in data set [7], in [8], in [9], in data set [10], in [11] and in data set [12] was “Compound NOT metabolized” in each case. The “Bacterial Biotransformation” value in data set [13], in [14], in [15], in data set [16], in data set [17] and in [18] was “Compound NOT metabolized” each time. In addition, the “Bacterial Biotransformation” value in data set [19] is on record as “Compound NOT metabolized”; in data set [20], “Compound metabolized”.

On to `CC(C)NCC(O)COc1ccc(COCCOC(C)C)cc1.CC(C)NCC(O)COc1ccc(COCCOC(C)C)cc1.O=C(O)/C=C/C(=O)O` (stereo not given) [BISOPROLOL FUMARATE], for which the “Bacterial Biotransformation” value is on record as “Compound NOT metabolized” in [1]; “Compound metabolized” in data set [2]; “Compound NOT metabolized” in data set [3]; “Compound metabolized” in data set [4]; “Compound NOT metabolized” in data set [5]; “Compound metabolized” in data set [6]. Moreover, the “Bacterial Biotransformation” value is reported as “Compound metabolized” in data set [7]; “Compound NOT metabolized” in [8]; “Compound metabolized” in data set [9]; “Compound metabolized” in data set [10]; “Compound NOT metabolized” in data set [11]; “Compound NOT metabolized” in data set [12]. For the same compound, the “Bacterial Biotransformation” value in data set [13] was “Compound metabolized”; in data set [14], “Compound NOT metabolized”; in data set [15], “Compound NOT metabolized”; in [16], “Compound NOT metabolized”; in data set [17] it was “Compound metabolized”; in data set [18], “Compound NOT metabolized”. The “Bacterial Biotransformation” value in data set [19] and in [20] was “Compound metabolized” throughout.

For the compound `CCCCCOC(=O)Nc1nc(=O)n([C@@H]2O[C@H](C)[C@@H](O)[C@H]2O)cc1F` [CAPECITABINE], the “Bacterial Biotransformation” value in data set [1], in [2], in data set [3], in data set [4], in data set [5] and in data set [6] was “Compound metabolized” in each case. The “Bacterial Biotransformation” value in data set [7], in data set [8], in data set [9], in data set [10], in [11] and in data set [12] was “Compound metabolized” each time. In addition, the “Bacterial Biotransformation” value in data set [13] is reported as “Compound metabolized”; in data set [14], “Compound metabolized”; in [15], “Compound NOT metabolized”; in [16] it was “Compound metabolized”; in [17], “Compound metabolized”; in data set [18] it was “Compound metabolized”. For the same compound, the “Bacterial Biotransformation” value in data set [19] and in [20] was “Compound metabolized” each time.

Regarding `Cc1ccc(-c2cc(C(F)(F)F)nn2-c2ccc(S(N)(=O)=O)cc2)cc1` [CELECOXIB], the “Bacterial Biotransformation” value in data set [1] is recorded as “Compound metabolized”; in data set [2] it was “Compound NOT metabolized”; in [3], “Compound NOT metabolized”; in data set [4], “Compound NOT metabolized”; in [5], “Compound metabolized”; in data set [6], “Compound metabolized”. For the same compound, the “Bacterial Biotransformation” value in data set [7] is “Compound metabolized”; in data set [8], “Compound metabolized”; in data set [9], “Compound metabolized”; in [10], “Compound NOT metabolized”; in data set [11] it was “Compound metabolized”; in [12], “Compound metabolized”. Besides, the “Bacterial Biotransformation” value in data set [13], in data set [14], in [15], in data set [16], in [17] and in data set [18] was “Compound NOT metabolized” in each case. For the same compound, the entries for the “Bacterial Biotransformation” value in data set [19] and in data set [20] were “Compound metabolized” and “Compound NOT metabolized”, respectively.
